Legend:
[1] = test system: TH promoter in SH-SY5Y cells; experiment: TH promoter assay (pTH6.0-GL3 luciferase) in SH-SY5Y cells; format: cell-based, human; settings: 24 hours; for elicited TH promoter activity on forced MeCP2 or CoREST expression / elicited TH promoter activity on co-transfection with HDAC1: 1 μM UCN or 1.25 mM SB; for elicited TH promoter activity on co-transfection with HDAC1: pK7-HDAC1 co-transfection
Excerpt: The luciferase reporter vector pTH6.0-GL3 constructed by engineering the 6.0 kb upstream sequences of the rat TH (TH6.0) gene into pGL3 was kindly provided by Dr. Kwang-Soo Kim (Harvard Medical School, Belmont, Mass.). Vector expressing Nurr1 (mouse) was constructed by inserting the respective cDNA into pAAV-MCS vector (pAAV-Nurr1), in which the cloned gene is designed to be expressed under the control of the cytomegalovirus (CMV) immediate-early promoter. pTH6.0-GL3 alone or combined with pAAV-Nurr1 were transfected into a human neuro-blastoma SH-SY5Y cell line or cortical NPCs, respectively, using Lipofectamine 2000 (Invitrogen) according to the protocol of the manufacturer. For determine the effect of MeCP2-CoREST-HDAC1 repressor complex on TH promoter activity, the SH-SY5Y cells were double transfected with pTH6.0-GL3 and pCMV6-Entry-Mecp2 (Flag-tagged MeCP2)/or pCMV6-Entry-Rcor1 (Flag-tagged CoREST) (both from OriGene Technologies, Rockville, Md.)/or pK7-HDAC1-GFP (Addgene). At 24 h after transfection, cells were treated with 1 μM UCN or 1.25 mM SB for another 24 h. Luciferase activity of cell lysates was determined luminometrically by the luciferase assay system (Promega, Madison, Wis.) as specified by the manufacturer. Luciferase activity was normalized to the protein content of the extracts. Relative luciferase activity was determined to reflect promoter activity of TH, expressed as the fold increase relative to the activity of control or untreated mock control.

rat TH promoter = experiment: Chromatin immuno-precipitation (ChIP) at the TH promoter in VM precursor cultures; format: cell-based
Method: VM precursor cultures were treated with 1 μM UCN for about 1 to 2 days. VM cells for ChIP from rat embryos, the pregnant rats on day 12.5 of gestation were intra-peritoneally injected with saline as control or 10 μg/kg UCN as treatment every 24 h for 3 days before sacrifice. The ventral mesencephalon from E15.5 embryos was dissected. Cells were cross-linked with 1% formaldehyde, and stored at −80° C. before use.
Chromatin immuno-precipitation (ChIP) assays were performed using SimpleChIP® Enzymatic Chromatin IP kit (Cell Signaling Technology, Beverly, Mass.) by the instruction of the kit. Briefly, cross-linked chromatin in the cells was enzymatic digested to generate fragments with a length of approximately 150-900 bp (1 to 5 nucleosomes). The chromatin was subjected to immuno-precipitation using the following antibodies: anti-Nurr1 (Santa Cruz), anti-acetyl histone H3 (Ac-H3), anti-HDAC1, anti-CoREST (all from Upstate Biotechnology), anti-MeCP2 (Chemicon,), anti-Foxa2 (Cell signaling Technology), anti-Pitx3, and IgG (both from Abcam). Immuno-precipitated DNA fragments were collected by protein G magnetic beads. DNA/protein complexes were eluted from the beads and reverse cross-linked at 65° C. for 2 h in the presence of proteinase K. Purified DNA were subjected to real-time PCR using primers specific to rat TH promoter loci (referring to Table 2). The abundance of the immuno-precipitated DNA in a sample was normalized to the amount of signal in the input DNA. The values of the control samples were set to 1.0.

VM precursor cultures = experiment: Immuno-cytochemistry and TH+ cell counting in VM precursor cultures; format: cell-based, rat
Method: Briefly, ventral mesencephalic tissues were dissected from E14.5 Sprague-Dawley (SD) rats, and then dissociated enzymatically (0.1% trypsin) and mechanically. Cells were seeded into 24-well (1×10^5/cm^2) culture plates pre-coated with 20 μg/mL poly-D-lysine (Sigma-Aldrich), and were maintained in 0.5 mL/well of minimum essential medium (MEM) supplemented with 10% fetal bovine serum (FBS), 10% horse serum (HS), 1 g/L glucose, 2 mM L-glutamine, 1 mM sodium pyruvate, 100 μM nonessential amino acids, 100 U/mL penicillin, and 100 μg/mL streptomycin (all purchased from Invitrogen). Cultures were maintained at 37° C. in a humidified atmosphere of 5% CO2 and 95% air. For DA neuron differentiation, VM precursor cultures, four hours after seeding, were switched to Dulbecco's Modified Eagle's Medium (DMEM)/Ham's F12 (1:1) containing N2 supplement (Invitrogen, Carlsbad, Calif.), penicillin and streptomycin. Immediately following the switch to DMEM/F12 medium, VM precursor cells were treated with various concentration of rat UCN (from Sigma-Aldrich, St. Louis, Mo.) for the indicated periods. For neutralization of endogenous UCN bioactivity, anti-UCN antibody (15 μg/mL) (Santa Cruz Biotechnology, Santa Cruz, Calif.) was added to the VM precursor cultures.
For immuno-cytochemistry, cells were fixed with 4% paraformaldehyde followed by blocking with PBS containing 0.4% Triton X-100, 3% normal goat serum and 2% bovine serum albumin (BSA) for 1 h at room temperature. After blocking, cells were incubated overnight at room temperature with primary antibodies. Primary antibodies were rabbit anti-UCN (1:200), mouse anti-TH (1:2000) (both from Sigma-Aldrich), goat anti-CRHR1 (1:100), rabbit anti-CRHR2 (1:250), rat anti-dopamine transporter (DAT, 1:200), chicken anti-MAP2 (1:5000) (all from Abcam, Cambridge, Mass.), rabbit anti-Nurr1 (1:100, Santa Cruz Biotechnology), mouse anti-Nurr1 (1:100, R&D Systems, Minneapolis, Minn.), rabbit anti-TH (1:1000), mouse anti-NeuN (1:200) (both from Chemicon, Temecula, Calif.), rabbit anti-acetyl-histone H3 (1:1000, Upstate Biotechnology, Lake Placid, N.Y.), rabbit anti-Foxa2 (1:500, Cell Signaling Technology), and rabbit anti-Pitx3 (1:100, Invitrogen).
For detection of dopaminergic neurons, the bound anti-TH antibody was visualized by incubation with an appropriate biotinylated secondary antibody followed by the Vectastain avidin-biotin-peroxidase (ABC) reagents (Vector Laboratories, Burlingame, Calif.) and color development with 3,3′-diaminobenzidine. The number of TH-positive neurons were counted in the entire surface area of a culture well or coverslip. For fluorescent double-labeling experiments, cells were incubated for 1 h at room temperature with rhodamine-conjugated donkey anti-mouse IgG (1:250), FITC-conjugated goat anti-rabbit IgG (1:250) or FITC-conjugated donkey anti-goat IgG (1:200) secondary antibodies (all from Jackson Immuno Research, West Grove, Pa.). Samples were counter-stained with Hoechst 33342 (5 μg/mL, Sigma-Aldrich) or DAPI (1 μg/mL), and mounted with 50% glycerol in PBS. Microscopic observations were done with a Zeiss Axiovert 200 M fluorescent microscope or a Zeiss LSM 510 META confocal imaging system (Carl Zeiss, Oberkochen, Germany). Immuno-reactive or Hoechst 33342-stained cells were counted in at least 10 random areas of each culture coverslip at a magnification of 100×.

[2] = SB, compared with the UCN effect

## CCCC(=O)[O-].[Na+] [SB, sodium butyrate, reference compound]
[1]
  elicited TH promoter activity on forced MeCP2 or CoREST expression: attenuation
  elicited TH promoter activity on co-transfection with HDAC1: significantly attenuated
[1]; 1.25 mM SB
  TH promoter activity: increase TH promoter activity
Rat TH promoter; [2]
  Nurr1 recruitment at the TH promoter: mimicked
  histone acetylation at the TH promoter: mimicked
VM precursor cultures; 1.25 mM SB, 3 days
  % TH+ cells out of total Nurr1+ cells (conversion of Nurr1+ precursors): increased DA cell numbers was through conversion of Nurr1^+ precursors into DA neurons
  cells with TH staining: increase in cells with TH staining

## Urocortin [UCN]
[1]
  elicited TH promoter activity on forced MeCP2 or CoREST expression: attenuation
  elicited TH promoter activity on co-transfection with HDAC1: significantly attenuated
[1]; 1 μM UCN
  TH promoter activity (relative luciferase activity): activation of the TH promoter
Rat TH promoter; 1 μM UCN, 2 days
  Nurr1 protein occupancy at the TH promoter: significantly increased
Rat TH promoter; UCN
  CoREST binding in the TH promoter regions: decreased CoREST binding
  Foxa2 occupancy at Nurr1 binding sites of TH promoter: increases
  HDAC1 recruitment at the TH promoter: significantly reduced
  histone H3 acetylation at TH promoter regions: significantly increased
Rat TH promoter; UCN, Nurr1-binding sites and repeated CpGs
  MeCP2 recruitment to the TH promoter: significantly reduced
VM precursor cultures; 1 μM UCN as early as 1 day in vitro vs control medium at 4 days in vitro
  number of TH+ neurons over time: clearly higher than that of control medium
VM precursor cultures; 1 μM UCN, 2 to 3 days
  Nurr1-immuno-reactive intensity: increased
  level of Foxa2 and Pitx3 in Nurr1+ cells: increased level
VM precursor cultures; 1 μM UCN, 4 days, double immuno-staining
  TH+ cells co-expressing NeuN, MAP2 and DAT: all the TH^+ cells
VM precursor cultures; UCN treated cultures (control 4.91%±0.54%)
  number of Nurr1+ cells: 4.68%±0.4%
VM precursor cultures; UCN vs control
  differentiation of Nurr1+/TH- precursors into Nurr1+/TH+ DA neurons: more Nurr1^+ cells develop concomitant TH^+ expression
VM precursor cultures; increasing doses of UCN, 3 days
  numbers of TH+ cells: dose-dependent increase

Source: patent US20160355782A1, “METHOD FOR ENHANCING DIFFERENTIATION OF DOPAMINERGIC NEURONS” (Buddhist Tzu Chi Medical Foundation, priority 2015, published 2016)
